Measurements: patent publication US4156724A, “N-acylamino-alpha-arylacetamido cephalosporins and antibacterial compositions and methods containing them” (Sumitomo Chemical Company, Limited, priority 1974, dated 1979)
Converted amounts (≈) assume the structure as drawn. Like-named read-outs stand apart in the source and are kept apart here.

What was measured:
Type in all cases: cell-based
[1] = test system: Staphylococcus aureus 209 P; assay: Minimum Inhibitory Concentration, Staphylococcus aureus 209 P; settings: read-out: Minimum Inhibitory Concentration
Experimental: (§1) anti-microbial activity tests were carried out on the compounds obtained in the Examples.

[2] = test system: Staphylococcus aureus FS 289; assay: Minimum Inhibitory Concentration, Staphylococcus aureus FS 289
Experimental: as §1
*Staphylococcus aureus FS 289: strain resistant to penicillin

Escherichia coli NIHJ = assay: Minimum Inhibitory Concentration, Escherichia coli NIHJ; settings: read-out: Minimum Inhibitory Concentration
Experimental: as §1

[3] = test system: Klebsiella pneumoniae 602; assay: Minimum Inhibitory Concentration, Klebsiella pneumoniae 602
Experimental: as §1

Proteus vulgaris HX 19 = assay: Minimum Inhibitory Concentration, Proteus vulgaris HX 19
Experimental: as §1

[4] = test system: Pseudomonas aeruginosa 104; assay: Minimum Inhibitory Concentration, Pseudomonas aeruginosa 104
Experimental: as §1

Serratia No. 72 = assay: Minimum Inhibitory Concentration, Serratia No. 72
Experimental: as §1

[5] = test system: Enterobacter aerogeneus No. 75; assay: Minimum Inhibitory Concentration, Enterobacter aerogeneus No. 75
Experimental: as §1

[6] = FS289, Staphylococcus aureus FS 289, strain resistant to penicillin, read-out: Minimum Inhibitory Concentration
[7] = Klebsiella pneumoniae, 602, Klebsiella pneumoniae 602, read-out: Minimum Inhibitory Concentration
[8] = HX19, Proteus vulgaris HX 19, read-out: Minimum Inhibitory Concentration
[9] = Pseudomonas aeruginosa 104, read-out: Minimum Inhibitory Concentration
[10] = Enterobacter aerogeneus No. 75, read-out: Minimum Inhibitory Concentration

With Nc1cccc(C(NC(=O)c2cnccc2O)C(=O)NC2C(=O)N3C(C(=O)O)=C(CSc4ccc(O)nn4)CSC23)c1 (centres unmarked) [Example 85] the MIC ([1]; Staphylococcus aureus 209 P) was 0.39 µg/mL (≈ 0.64 µM), the MIC [2, 6] was 6.25 µg/mL (≈ 10.3 µM) and the MIC (Escherichia coli NIHJ; Escherichia coli NIHJ) was 6.25 µg/mL (≈ 10.3 µM). It also gave an MIC [3, 7] of 3.13 µg/mL (≈ 5.13 µM), an MIC (Proteus vulgaris HX 19; [8]) of 0.2 µg/mL (≈ 0.328 µM) and an MIC [4, 9] of 6.25 µg/mL (≈ 10.3 µM). It also gave an MIC (Serratia No. 72) of 100 µg/mL (≈ 164 µM) and an MIC [5, 10] of 25 µg/mL (≈ 41 µM).
In the case of CC(=O)OCC1=C(C(=O)O)N2C(=O)[C@@H](NC(=O)Cc3cccs3)[C@H]2SC1 [CET, reference compound], the MIC ([1]; Staphylococcus aureus, 209P) is reported as 0.1 µg/mL (≈ 0.252 µM), the MIC ([2]; Staphylococcus aureus, FS289, read-out: Minimum Inhibitory Concentration) is reported as 0.78 µg/mL (≈ 1.97 µM) and the MIC (Escherichia coli NIHJ; Escherichia coli) is reported as 12.5 µg/mL (≈ 31.5 µM). The MIC ([3]; Klebsiella pneumoniae, 602, read-out: Minimum Inhibitory Concentration) was 0.78 µg/mL (≈ 1.97 µM), the MIC (Proteus vulgaris HX 19; Proteus vulgaris, HX19, read-out: Minimum Inhibitory Concentration) was 3.13 µg/mL (≈ 7.9 µM) and the MIC ([4]; Pseudomonas aeruginosa, 104, read-out: Minimum Inhibitory Concentration) was > 200 µg/mL. For the same compound, the MIC (Serratia No. 72) was > 200 µg/mL and the MIC ([5]; Enterobacter, NO.75, read-out: Minimum Inhibitory Concentration) was > 200 µg/mL.
Work on Cn1nnnc1SCC1=C(C(=O)O)N2C(=O)C(NC(=O)C(NC(=O)c3cnccc3O)c3ccc(O)c(O)c3)C2SC1 (centres unmarked) [Example 185] yielded an MIC ([1]; Staphylococcus aureus 209 P) of 0.78 µg/mL (≈ 1.27 µM), an MIC [2, 6] of 6.25 µg/mL (≈ 10.2 µM) and an MIC (Escherichia coli NIHJ; Escherichia coli NIHJ) of 6.25 µg/mL (≈ 10.2 µM). For the same compound, the MIC [3, 7] was 6.25 µg/mL (≈ 10.2 µM), the MIC (Proteus vulgaris HX 19; [8]) was 0.39 µg/mL (≈ 0.635 µM) and the MIC [4, 9] was 6.25 µg/mL (≈ 10.2 µM). For the same compound, the MIC (Serratia No. 72) was 50 µg/mL (≈ 81.4 µM) and the MIC [5, 10] was 12.5 µg/mL (≈ 20.3 µM).
In the case of CC(=O)OCC1=C(C(=O)O)N2C(=O)C(NC(=O)[C@H](NC(=O)c3cnc4nc(C)ccc4c3O)c3ccc(O)cc3)C2SC1 (some centres unmarked) [Example 123], the MIC ([1]; Staphylococcus aureus 209 P) is reported as 0.78 µg/mL (≈ 1.28 µM), the MIC [2, 6] is reported as 6.25 µg/mL (≈ 10.3 µM) and the MIC (Escherichia coli NIHJ; Escherichia coli NIHJ) is reported as 6.25 µg/mL (≈ 10.3 µM). For the same compound, the MIC [3, 7] was 3.13 µg/mL (≈ 5.15 µM), the MIC (Proteus vulgaris HX 19; [8]) was 0.78 µg/mL (≈ 1.28 µM) and the MIC [4, 9] was 6.25 µg/mL (≈ 10.3 µM). The MIC (Serratia No. 72) was 100 µg/mL (≈ 165 µM) and the MIC [5, 10] was 12.5 µg/mL (≈ 20.6 µM).
With Cn1nnnc1SCC1=C(C(=O)O)N2C(=O)C(NC(=O)C(NC(=O)c3cnccc3O)c3cccc(N)c3)C2SC1 (centres unmarked) [Example 57] the MIC ([1]; Staphylococcus aureus 209 P) was 0.39 µg/mL (≈ 0.653 µM), the MIC [2, 6] was 6.25 µg/mL (≈ 10.5 µM) and the MIC (Escherichia coli NIHJ; Escherichia coli NIHJ) was 6.25 µg/mL (≈ 10.5 µM). For the same compound, the MIC [3, 7] was 6.25 µg/mL (≈ 10.5 µM), the MIC (Proteus vulgaris HX 19; [8]) was 0.1 µg/mL (≈ 0.167 µM) and the MIC [4, 9] was 6.25 µg/mL (≈ 10.5 µM). For the same compound, the MIC (Serratia No. 72) was 50 µg/mL (≈ 83.7 µM) and the MIC [5, 10] was 12.5 µg/mL (≈ 20.9 µM).
NC(=O)Nc1ccc([C@@H](NC(=O)c2cncnc2O)C(=O)N[C@@H]2C(=O)N3C(C(=O)O)=C(CSc4nncs4)CS[C@H]23)cc1 [Example 19] gave an MIC ([1]; Staphylococcus aureus 209 P) of 0.39 µg/mL (≈ 0.606 µM), an MIC [2, 6] of 6.25 µg/mL (≈ 9.71 µM) and an MIC (Escherichia coli NIHJ; Escherichia coli NIHJ) of 12.5 µg/mL (≈ 19.4 µM). For the same compound, the MIC [3, 7] was 6.25 µg/mL (≈ 9.71 µM), the MIC (Proteus vulgaris HX 19; [8]) was 0.2 µg/mL (≈ 0.311 µM) and the MIC [4, 9] was 12.5 µg/mL (≈ 19.4 µM). For the same compound, the MIC (Serratia No. 72) was 50 µg/mL (≈ 77.7 µM) and the MIC [5, 10] was 25 µg/mL (≈ 38.8 µM).
O=C(O)C1=C(CSc2ccc(O)nn2)CSC2C(NC(=O)[C@H](NC(=O)c3cnc4cccnc4c3O)c3ccc(O)c(Cl)c3)C(=O)N12 (some centres unmarked) [Example 149] was tested, and the MIC ([1]; Staphylococcus aureus 209 P) was 0.78 µg/mL (≈ 1.12 µM), the MIC [2, 6] was 6.25 µg/mL (≈ 8.98 µM) and the MIC (Escherichia coli NIHJ; Escherichia coli NIHJ) was 3.13 µg/mL (≈ 4.5 µM). It also gave an MIC [3, 7] of 3.13 µg/mL (≈ 4.5 µM), an MIC (Proteus vulgaris HX 19; [8]) of 0.39 µg/mL (≈ 0.56 µM) and an MIC [4, 9] of 6.25 µg/mL (≈ 8.98 µM). The MIC (Serratia No. 72) was 25 µg/mL (≈ 35.9 µM) and the MIC [5, 10] was 6.25 µg/mL (≈ 8.98 µM).
Cn1nnnc1SCC1=C(C(=O)O)N2C(=O)C(NC(=O)C(NC(=O)c3cnc4scnc4c3O)c3ccc(O)cc3)C2SC1 (centres unmarked) [Example 158] was tested, and the MIC ([1]; Staphylococcus aureus 209 P) was 0.39 µg/mL (≈ 0.595 µM), the MIC [2, 6] was 12.5 µg/mL (≈ 19.1 µM) and the MIC (Escherichia coli NIHJ; Escherichia coli NIHJ) was 6.25 µg/mL (≈ 9.53 µM). It also gave an MIC [3, 7] of 1.56 µg/mL (≈ 2.38 µM), an MIC (Proteus vulgaris HX 19; [8]) of 0.39 µg/mL (≈ 0.595 µM) and an MIC [4, 9] of 6.25 µg/mL (≈ 9.53 µM). The MIC (Serratia No. 72) was 25 µg/mL (≈ 38.1 µM) and the MIC [5, 10] was 12.5 µg/mL (≈ 19.1 µM).
Compound CSc1ccc2ncc(C(=O)N[C@@H](C(=O)NC3C(=O)N4C(C(=O)O)=C(CSc5nnc(CN)s5)CSC34)c3ccc(O)cc3)c(O)c2n1 (some centres unmarked) [Example 153] has an MIC ([1]; Staphylococcus aureus 209 P) of 0.78 µg/mL (≈ 1.07 µM), an MIC [2, 6] of 6.25 µg/mL (≈ 8.6 µM) and an MIC (Escherichia coli NIHJ; Escherichia coli NIHJ) of 3.13 µg/mL (≈ 4.31 µM). The MIC [3, 7] was 3.13 µg/mL (≈ 4.31 µM), the MIC (Proteus vulgaris HX 19; [8]) was 0.39 µg/mL (≈ 0.537 µM) and the MIC [4, 9] was 6.25 µg/mL (≈ 8.6 µM). The MIC (Serratia No. 72) was 25 µg/mL (≈ 34.4 µM) and the MIC [5, 10] was 6.25 µg/mL (≈ 8.6 µM).
With O=C(O)C1=C(CSc2ccc(O)nn2)CSC2C(NC(=O)C(NC(=O)c3cnccc3O)c3ccc(CO)cc3)C(=O)N12 (centres unmarked) [Example 111] the MIC ([1]; Staphylococcus aureus 209 P) was 0.78 µg/mL (≈ 1.25 µM), the MIC [2, 6] was 6.25 µg/mL (≈ 10 µM) and the MIC (Escherichia coli NIHJ; Escherichia coli NIHJ) was 12.5 µg/mL (≈ 20 µM). The MIC [3, 7] was 6.25 µg/mL (≈ 10 µM), the MIC (Proteus vulgaris HX 19; [8]) was 0.39 µg/mL (≈ 0.624 µM) and the MIC [4, 9] was 12.5 µg/mL (≈ 20 µM). The MIC (Serratia No. 72) was 100 µg/mL (≈ 160 µM) and the MIC [5, 10] was 12.5 µg/mL (≈ 20 µM).
In the case of CC(=O)OCC1=C(C(=O)O)N2C(=O)[C@@H](NC(=O)[C@H](NC(=O)c3cncnc3O)c3ccc(NC(N)=O)cc3)[C@H]2SC1 [Example 5], the MIC ([1]; Staphylococcus aureus 209 P) is reported as 0.39 µg/mL (≈ 0.666 µM), the MIC [2, 6] is reported as 6.25 µg/mL (≈ 10.7 µM) and the MIC (Escherichia coli NIHJ; Escherichia coli NIHJ) is reported as 12.5 µg/mL (≈ 21.3 µM). The MIC [3, 7] was 12.5 µg/mL (≈ 21.3 µM), the MIC (Proteus vulgaris HX 19; [8]) was 0.39 µg/mL (≈ 0.666 µM) and the MIC [4, 9] was 12.5 µg/mL (≈ 21.3 µM). For the same compound, the MIC (Serratia No. 72) was 200 µg/mL (≈ 342 µM) and the MIC [5, 10] was 50 µg/mL (≈ 85.4 µM).
Compound Cn1nnnc1SCC1=C(C(=O)O)N2C(=O)[C@@H](NC(=O)[C@H](NC(=O)c3cnc4cccnc4c3O)c3ccc(NC(N)=O)cc3)[C@H]2SC1 [Example 22] has an MIC ([1]; Staphylococcus aureus 209 P) of 0.78 µg/mL (≈ 1.13 µM), an MIC [2, 6] of 6.25 µg/mL (≈ 9.04 µM) and an MIC (Escherichia coli NIHJ; Escherichia coli NIHJ) of 1.56 µg/mL (≈ 2.26 µM). The MIC [3, 7] was 1.56 µg/mL (≈ 2.26 µM), the MIC (Proteus vulgaris HX 19; [8]) was 0.1 µg/mL (≈ 0.145 µM) and the MIC [4, 9] was 3.13 µg/mL (≈ 4.53 µM). For the same compound, the MIC (Serratia No. 72) was 12.5 µg/mL (≈ 18.1 µM) and the MIC [5, 10] was 3.13 µg/mL (≈ 4.53 µM).
In the case of Cc1nnc(SCC2=C(C(=O)O)N3C(=O)C(NC(=O)C(NC(=O)c4cnccc4O)c4ccc(CO)cc4)C3SC2)s1 (racemic) [Example 90, 7-[DL-α-(4-Hydroxypyridine-3carbonamido)-α -p-hydroxymethylphenylacetamido]-3-(2-methyl-1,3,4-thiadiazol-5-yl)thiomethyl-3-cephem-4-carboxylic Acid], the MIC ([1]; Staphylococcus aureus 209 P) is reported as 0.78 µg/mL (≈ 1.24 µM), the MIC [2, 6] is reported as 6.25 µg/mL (≈ 9.94 µM) and the MIC (Escherichia coli NIHJ; Escherichia coli NIHJ) is reported as 12.5 µg/mL (≈ 19.9 µM). It also gave an MIC [3, 7] of 25 µg/mL (≈ 39.8 µM), an MIC (Proteus vulgaris HX 19; [8]) of 0.39 µg/mL (≈ 0.62 µM) and an MIC [4, 9] of 12.5 µg/mL (≈ 19.9 µM). For the same compound, the MIC (Serratia No. 72) was > 200 µg/mL and the MIC [5, 10] was 12.5 µg/mL (≈ 19.9 µM).
